Data as given in US7691907B2, “Methods and composition based on discovery of metabolism of nitroglycerin” (priority 2002, dated 2010).
Entries after “also recorded” stand apart in the source; their conditions may differ. Where two headings read alike, the source gives them in different places.

Assays:
[1] = target: T1, mtALDH isolated from mouse macrophage RAW 264.7 (Mus musculus, UniProt P47738); type: biochemical
T1 construct: Mouse macrophage RAW 264.7 cells were homogenized in a 30 mM phosphate buffer; endogenous in cells; host or cells: mouse macrophage RAW 264.7 cells (endogenous enzyme purified over DEAE-cellulose, Q-sepharose, Butyl-Sepharose and hydroxyapatite)
T1 sequence (P47738 20-519): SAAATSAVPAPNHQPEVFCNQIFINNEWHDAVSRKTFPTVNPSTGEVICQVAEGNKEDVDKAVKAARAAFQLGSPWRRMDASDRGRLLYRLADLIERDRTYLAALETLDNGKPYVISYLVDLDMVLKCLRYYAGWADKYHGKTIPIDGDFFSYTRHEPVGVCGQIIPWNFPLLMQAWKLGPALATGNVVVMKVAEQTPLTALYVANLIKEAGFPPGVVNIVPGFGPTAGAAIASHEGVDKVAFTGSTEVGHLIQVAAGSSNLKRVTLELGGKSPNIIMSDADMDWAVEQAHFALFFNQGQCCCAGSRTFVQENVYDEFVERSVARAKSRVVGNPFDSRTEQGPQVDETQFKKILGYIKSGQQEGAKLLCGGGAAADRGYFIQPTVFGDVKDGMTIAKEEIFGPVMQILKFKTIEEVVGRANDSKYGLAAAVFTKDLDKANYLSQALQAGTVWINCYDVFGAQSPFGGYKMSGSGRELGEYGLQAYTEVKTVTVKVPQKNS

[2] = system: patient; details: human, in vivo
[3] = target: T2, mouse mitochondria aldehyde dehydrogenase (mtALDH) purified from RAW264.7 cells (Mus musculus, UniProt P47738); assay: GTN reductase activity of purified enzyme (1,2-GDN formation from [14C]GTN, TLC-LSS); type: biochemical; details: for restoration of catalytic activity lost upon removal of DTT by dialysis: purified enzyme after dialysis
T2 construct: Mouse macrophage RAW 264.7 cells were homogenized in a 30 mM phosphate buffer; endogenous in cells; host or cells: mouse macrophage RAW 264.7 cells (endogenous enzyme purified over DEAE-cellulose, Q-sepharose, Butyl-Sepharose and hydroxyapatite)
T2 sequence (P47738 20-519): T1 sequence (P47738 20-519)

[4] = system: mitochondria isolated from RAW 264.7 cells; assay: 1,2-GDN generation from GTN by mitochondria isolated from RAW 264.7 cells; type: biochemical, mouse
Procedure: During protein purification, the assay mixtures (1 ml samples) contained 100 mM KPi, pH7.5, 0.5 mM EDTA, 1 mM NADH, 1 mM NADPH, 0.1 or 1 μM [^14C]GTN and protein sample from column fractions. After incubation at 37° C. for 10 to 30 minutes, the reaction was stopped (by adding dry ice) and GTN and its metabolites were extracted by 3×4 ml ether, the ether phase was combined and the solvent was evaporated by a stream of nitrogen. The final volume was controlled to less than 100 μl in ethanol for subsequent thin layer chromatography (TLC) separation and liquid scintillation spectrometry counting, i.e., (TLC-LSS), to determine amount of [^14C]1,2-GDN, to select samples with enzymatic activity (i.e., 1,2-GDN producing activity).
At the end of the procedure, the protein had been purified to near homogeneity (90 fold), with a 14.4% overall yield; its estimated molecular weight on SDS gel is about 53 kDa. N-terminal sequence of 30 amino acid residues was obtained by Edman degradation and matched exactly with mouse mitochondria aldehyde dehydrogenase.

[5] = system: rabbit thoracic aorta rings; assay: tissue or blood; type: cell-based, New Zealand white rabbits; details: for EC50: Oryctolagus cuniculus, read-out: EC50 for GTN relaxation
[6] = system: organic nitrate ester reductase activity (mtALDH) in aorta rings; assay: 1,2-GDN formation from GTN in aorta rings; type: cell-based, New Zealand white rabbits; details: for activity at 1000 µM: Oryctolagus cuniculus, read-out: 1,2-GDN generation in the aorta rings, % of control activity
[7] = system: cGMP accumulation in the aortic rings; assay: cGMP accumulation in aortic rings; type: cell-based, New Zealand white rabbits; details: for effect on increase in cGMP produced by GTN: 1 μM for 1 minute
[8] = target: T3, mtALDH (Oryctolagus cuniculus, UniProt G1SUY2); assay: mtALDH activity in partially purified preparations of GTN tolerant aortic rings; type: biochemical, rabbit
T3 construct: from tissue; host or cells: thoracic aorta rings of New Zealand white rabbits, made GTN tolerant; partially purified preparation
T3 sequence (G1SUY2 1-521): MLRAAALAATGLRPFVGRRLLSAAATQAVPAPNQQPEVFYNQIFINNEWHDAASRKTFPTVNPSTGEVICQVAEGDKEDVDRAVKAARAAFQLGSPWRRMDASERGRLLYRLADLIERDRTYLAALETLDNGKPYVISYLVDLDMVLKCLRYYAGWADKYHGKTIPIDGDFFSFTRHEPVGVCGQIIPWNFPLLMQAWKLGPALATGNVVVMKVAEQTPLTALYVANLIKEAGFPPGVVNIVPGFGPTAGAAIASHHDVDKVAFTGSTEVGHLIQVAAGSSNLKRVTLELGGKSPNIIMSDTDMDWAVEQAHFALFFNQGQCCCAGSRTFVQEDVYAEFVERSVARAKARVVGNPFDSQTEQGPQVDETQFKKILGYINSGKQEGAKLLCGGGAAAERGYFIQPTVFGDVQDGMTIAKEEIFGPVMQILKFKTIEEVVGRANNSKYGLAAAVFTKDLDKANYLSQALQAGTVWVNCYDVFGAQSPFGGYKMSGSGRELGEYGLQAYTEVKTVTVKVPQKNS

[9] = cited from earlier work
[10] = system: anesthetized rabbits (arterial blood pressure); assay: Systemic hypotensive effects of GTN infusion in anesthetized rabbits; type: in vivo, New Zealand white rabbits; details: for effect on SNP or adenosine mediated hypotension: inhibitor (~5 mM) infused intravenously 20 minutes prior; for effect on hypotensive effects of GTN: inhibitor (~5 mM) infused intravenously 20 minutes prior to GTN
[11] = 1 mM, 20 minutes before 1 μM GTN, 5 minutes 37° C.

## O=C(O)CCP(CCC(=O)O)CCC(=O)O [TCEP, tris(2-carboxyethylphosphine)]
[1]; 1 mM GTN, excess mtALDH, 37° C. 10-30 minutes, DTT 1 mM, DHLA 0.5 and 0.1 mM, TCEP 1 mM
  activation of mtALDH to cause conversion of GTN to 1,2-GDN (FIG. 1): best activators
[2]
  clinical outcome: tolerance is reversed and angina resolves

## N[C@@H](CCC(=O)N[C@@H](CS)C(=O)NCC(=O)O)C(=O)O [glutathione]
[3]
  restoration of catalytic activity lost upon removal of DTT by dialysis: not

## O=[N+]([O-])OCC(CO[N+](=O)[O-])O[N+](=O)[O-] [GTN, glyceryl trinitrate]
[3]; purified enzyme
  1,3-GDN formation from GTN: below detection limits
[3]; purified enzyme, GTN 0.1 to 10 μM
  rates of 1,2-GDN formation versus GTN concentration: linear
[3]; purified enzyme, n=3
  product ratio of 1,2-GDN/NOx (nitrite plus nitrate): 0.73±0.05
  product ratio of 1,2-GDN/nitrite: 0.83±0.14
[4]; mitochondria isolated from RAW 264.7 cells, 1 mM NADH/NADPH
  1,2-GDN generation from GTN: 0.29 nmol/h/mg
[4]; mitochondria-free supernatant
  1,2-GDN generation from GTN, residual activity: no residual activity
[5]; 0.5 h
  EC50: 3760 ± 2050 nM
[5]
  EC50: 22.6 ± 9.2 nM
[6]; GTN-tolerant rings compared to control
  decrease of reductase activity as measured by 1,2-GDN formation: 60.4%
[7]; GTN tolerant rings
  cGMP accumulation from GTN treatment: abolished
[8]
  activity of mtALDH: inhibited
[2]
  blood pressure after drop: 100 mm Hg
[9]
  solubility in glycerol: sparingly soluble

## O=C(O)CCCC[C@@H]1CCSS1 (racemic) [lipoic acid]
[3]; purified enzyme
  dependence of 1,2-GDN formation by purified enzyme on added dithiol: could only catalyze 1,2-GDN formation when dithiol

## CCCCCO[N+](=O)[O-] [amyl nitrate]
[2]
  clinical outcome: improvement in dyspnea and symptoms of fatigue

## Cc1cnc(C(=O)NCCc2ccc(S(=O)(=O)NC(=O)NC3CCCCC3)cc2)cn1 [glipizide]
[2]; iv
  clinical outcome: preservation of left ventricular function

## O=NOC(CO)CO [2 glycerol mononitrite, 2-glycerol mononitrite]
[2]
  angiography the following year: no progression of atherosclerosis
  clinical outcome: relief of symptoms

## N#CN [cyanamide]
[5]
  increase of GTN EC50 by inhibitor/competitive substrate: 4.9 fold
[6]; [11]
  activity at 1000 µM: 56.9%
[7]; 100 μM-10 nM
  reduction of the cGMP increase produced by GTN: 46%
[10]
  effect on SNP or adenosine mediated hypotension: little or no effect
  effect on hypotensive effects of GTN: significantly attenuated

## [Cl-].[O-][N+](=S)CCCC[P+](c1ccccc1)(c1ccccc1)c1ccccc1 [thionitrobutyltriphenylphosphonium chloride]
[2]; iv, 15 mg/kg
  clinical outcome: relief of symptoms and enhanced sensitivity to nitroglycerin

## nitric oxide [NO solutions]
[5]
  effect of preincubation with the mtALDH inhibitors on relaxation induced by this vasodilator: did not attenuate relaxation

## OC(O)C(Cl)(Cl)Cl [chloral hydrate]
[5]
  increase of GTN EC50 by inhibitor/competitive substrate: 8.9 fold
[6]; [11]
  activity at 1000 µM: 27.6%
[7]
  effect on increase in cGMP produced by GTN: completely blocked
[10]
  effect on SNP or adenosine mediated hypotension: little or no effect
  effect on hypotensive effects of GTN: significantly attenuated
[2]
  clinical outcome: resolution of symptoms; also recorded: without a decline in blood pressure; also recorded: without a fall in blood pressure; also recorded: improvement in wheezing and shortness of breath
[2]; iv
  clinical outcome: left ventricular function is largely preserved
[2]; po
  clinical outcome: blood pressure is restored
  systolic blood pressure after rise: 160 mm Hg

## CCON=O [ethyl nitrite]
[2]; iv
  clinical outcome: Anginal symptoms resolve
  systolic blood pressure after fall: 120 mm Hg

## N[C@@H](CCC(=O)N[C@@H](CSN=O)C(=O)NCC(=O)O)C(=O)O [S-nitrosoglutathione]
[2]
  clinical outcome: improvement of dyspnea and relief of angina; also recorded: relief of symptoms

## CCN(CC)C(=S)SSC(=S)N(CC)CC [antibuse]
[2]; po
  clinical outcome: without headache or symptomatic hypotension

## O=C(O)CCCC[C@@H](S)CCS (racemic) [DHLA, dihydrolipoic acid]
[1]
  activation of mtALDH to cause conversion of GTN to 1,2-GDN (FIG. 1): best activators
[2]; iv, 50 mg/kg
  clinical outcome: reverses tolerance and maintains mtALDH activity

## O=[N+]([O-])O[C@@H]1CO[C@H]2[C@@H]1OC[C@@H]2O [Imdur]
[2]
  cross-tolerance with nitroglycerin: no cross-tolerance

## O=CC[N+](=O)[O-] [nitroacetaldehyde]
[2]; 0.1 mg/kg
  clinical outcome: relief of dyspnea

## acetaldehyde
[5]
  increase of GTN EC50 by inhibitor/competitive substrate: 4.4 fold
[6]; [11]
  1,2-GDN generation in the aorta rings, % of control activity: 52.5%
[7]
  effect on increase in cGMP produced by GTN: completely blocked
[2]; iv
  clinical outcome: normalizing blood pressure

## O[C@H](CS)[C@H](O)CS (racemic) [DTT, dithiothreitol]
[3]; purified enzyme
  dependence of 1,2-GDN formation by purified enzyme on added dithiol: could only catalyze 1,2-GDN formation when dithiol
[3]
  restoration of catalytic activity lost upon removal of DTT by dialysis: fully restored
[1]
  activation of mtALDH to cause conversion of GTN to 1,2-GDN (FIG. 1): best activators

## NCCCNCCSP(=O)(O)O [amifostine]
[2]
  clinical outcome: resolution rectal pain
  improvement in FEV 1: 12%
